Laboratory results as given in patent US6221871A, “Certain aminomethyl biphenyl, aminomethyl phenyl pyridine and aminomethyl phenyl pyrimidine derivatives; novel dopamine receptor subtype selective ligands” (priority 1999, dated 2001).
Counter-ions that a name gives are not always drawn. Like-named read-outs stand apart in the source and are kept apart here.

Legend:
[1] = biological target: D3 receptor; test: D3 receptor binding, [3H]raclopride displacement; details: 0.5 nM 3H-raclopride; recombinantly produced D3 receptors, BHK 293 cells
[2] = biological target: T1, human dopamine D4 receptor subtype (Homo sapiens, UniProt P21917); test: D4 receptor binding, [3H]YM-09151-2 displacement
T1 construct: expressed in transfected cells
T1 sequence (P21917 1-419): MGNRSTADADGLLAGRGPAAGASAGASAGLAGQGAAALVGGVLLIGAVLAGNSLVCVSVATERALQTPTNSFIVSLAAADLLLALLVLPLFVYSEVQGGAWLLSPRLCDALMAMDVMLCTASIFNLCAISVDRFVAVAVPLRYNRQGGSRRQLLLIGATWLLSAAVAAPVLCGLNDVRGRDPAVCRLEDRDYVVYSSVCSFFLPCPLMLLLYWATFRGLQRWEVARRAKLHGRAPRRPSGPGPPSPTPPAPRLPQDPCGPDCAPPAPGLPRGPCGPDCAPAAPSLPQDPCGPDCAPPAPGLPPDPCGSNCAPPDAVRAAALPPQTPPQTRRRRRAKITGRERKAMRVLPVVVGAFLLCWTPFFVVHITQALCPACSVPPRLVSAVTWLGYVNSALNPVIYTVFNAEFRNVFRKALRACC
Experimental: Assay for D4 receptor binding activity
Clonal cell lines expressing the human dopamine D4 receptor subtype were harvested in PBS and the cells centrifuged and the pellets stored at -80° C. until used in the binding assay. The pellets were resuspended and the cells lysed at 4° C. in 50 mM Tris pH 7.4 buffer containing 120 mM NaCl, 1 mM EDTA and 5 mM MgCl2. The homogenate is centrifuged at 48000× g for 10 minutes at 4° C. The resulting pellet is resuspended in fresh buffer and centrifuged again. After resuspension of the pellet in fresh buffer a […] aliquot is removed for protein determination. The remaining homogenate is centrifuged as above, the supernatant removed and the pellet stored at 4° C. until needed; at which time it is resuspended to a final concentration of […] with 50 mM Tris buffer (pH 7.4) and 120 mM NaCl just prior to use. Incubations were carried out for 60 minutes at 25° C. in the presence of 0.1 nM [^3 H] YM-09151-2. The incubation was terminated by rapid filtration through Whatman GF/C filters and rinsed with 2×4 ml washes of chiled 50 mM Tris (pH 7.4) and 120 mM NaCl. Non-specific binding was determined with 1 mM spiperone and radioactivity determined by counting in an LKB beta counter. Binding parameters were determined by non-linear least squares regression analysis, from which the inhibition constant Ki could be calculated for each test compound. The binding characteristics of some examples of this patent are shown in Table 2 for the dopamine D4 binding assay.

[3] = biological target: D2 receptor (Rattus norvegicus, UniProt P61169); test: biochemical; format: binding
D2 receptor, sequence (P61169 whole entry): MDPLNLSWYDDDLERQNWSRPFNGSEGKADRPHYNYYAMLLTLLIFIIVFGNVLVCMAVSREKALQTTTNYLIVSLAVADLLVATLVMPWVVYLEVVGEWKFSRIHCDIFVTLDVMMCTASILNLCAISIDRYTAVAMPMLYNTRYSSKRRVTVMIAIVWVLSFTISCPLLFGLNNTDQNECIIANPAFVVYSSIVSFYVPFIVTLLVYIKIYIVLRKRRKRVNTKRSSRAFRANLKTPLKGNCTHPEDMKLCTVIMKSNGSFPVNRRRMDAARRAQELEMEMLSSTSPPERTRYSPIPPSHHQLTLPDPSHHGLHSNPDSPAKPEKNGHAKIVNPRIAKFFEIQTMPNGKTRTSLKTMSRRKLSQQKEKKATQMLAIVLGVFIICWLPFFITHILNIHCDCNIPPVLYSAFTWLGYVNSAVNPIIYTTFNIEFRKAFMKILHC
Experimental: Assay for D2 and D3 receptor binding activity
Striatial tissue is dissected from adult male Sprague Dawley rats or BHK 293 cells are harvested containing recombinantly produced D2 or D3 receptors. The sample is homogenized in 100 volumes (w/vol) of 0.05 M Tris HCl buffer at 4° C. and pH 7.4. The sample is then centrifuged at 30,000× g and resuspended and rehomogenized. The sample is then centrifuged as described and the final tissue sample is frozen until use. The tissue is resuspended 1:20 (wt/vol) in 0.05 M Tris HCl buffer containing 100 mM NaCl.
Incubations are carried out at 48° C. and contain 0.5 ml of tissue sample, 0.5 nM ^3 H-raclopride and the compound of interest in a total incubation of 1.0 ml.

[4] = 0.1 nM [3H]YM-09151-2, 60 min, 25° C., clonal cell lines expressing human D4 (Table 2), read-out: Ki
[5] = 0.5 nM 3H-raclopride, rat striatal homogenates (Table 1), read-out: D2 binding IC50

Compound	IC50 [1]	Ki [2, 4]	IC50 [3, 5]	IC50 [3]	Ki [2]
CC(c1cccc(-c2ccccc2)c1)N(C)Cc1ccccc1 (centres unmarked) [Compound 6, N-(1-(3-biphenyl)ethyl-N-methylbenzylamine hydrochloride]	6120 nM	> 75 nM			
c1ccc(CC2CCN(Cc3cccc(-c4ccccc4)n3)CC2)cc1 [Compound 10, 2-Phenyl-6-[(4benzyl-piperidin-1-yl)methyl]-pyridine]	1140 nM	769 nM			
COc1ccccc1N1CCN(C(C)c2cccc(-c3ccccc3)c2)CC1 (centres unmarked) [Compound 7, 1-(2-methoxyphenyl)-4-(1-(3-biphenyl)ethyl)piperazine dihydrochloride]	342 nM	> 75 nM			
c1ccc(-c2cccc(CN3CCC(c4ccccc4)CC3)c2)cc1 [Compound 4, 3-[(4phenyl-piperidin-1-yl)methyl]biphenyl hydrochloride]	61 nM	28 nM	5 nM		
COc1ccc(-c2ccccc2)cc1CN1CCN(c2ncccn2)CC1 [Compound 1, 4phenyl-2-[(4-(2-pyrimidinyl)-piperazinyl)methyl]-anisole dihydrochloride]		32 nM	175 nM		
COc1ccc(CN2CCN(c3ncccn3)CC2)cc1-c1ccccc1 [Compound 2, 2-phenyl-4-[(4-(2-pyrimidinyl)-piperazinyl)methyl]anisole dihydrochloride]		243 nM			
c1ccc(-c2cc(CN3CCN(c4ncccn4)CC3)cc(-c3ccccc3)c2)cc1 [Compound 8, 1-(2-pyrimidyl)-4-((3,5-diphenylphenyl)methyl)piperazine dihydrochloride]		1050 nM	1940 nM		
c1ccc(CC2CCN(Cc3ccnc(-c4ccccc4)c3)CC2)cc1 [Compound 9, 2-phenyl-4-[(4-benzyl-piperidin-1-yl)methyl]-pyridine dihydrochloride]		56 nM	290 nM		
Cc1cc(-c2ccccc2)ccc1CN1CCC(Cc2ccccc2)CC1 [Compound 5, 3-phenyl-6-[(4-benzyl-piperidin-1-yl)methyl]toluenehydrochloride]	2490 nM	286 nM			
C1=C(c2ccccc2)CCN(Cc2cccc(-c3ccccc3)c2)C1 [Compound 3, 3-[(4-1,2,3,6-tetrahydropyridin-1-yl)methyl]biphenyl hydrochloride]	12 nM			12 nM	18 nM
c1ccc(CC2CCN(Cc3ccnc(-c4ccccc4)n3)CC2)cc1 [Compound 11, 2-phenyl-4-[(4-benzyl-piperidin-1-yl)methyl]-pyrimidine dihydrochloride]	1610 nM	600 nM			
